Test results reported in ChEMBL document CHEMBL5154661, “Novel 2-phenyl-3-(Pyridin-2-yl) thiazolidin-4-one derivatives as potent inhibitors for proliferation of osteosarcoma cells in vitro and in vivo” (Eur J Med Chem, 2022).
≈ marks a conversion by molar mass, not a printed value. One block for each compound: values may come before it.

Assays:
[1] = tested on: HOS; assay: Antiproliferative activity against human HOS cells assessed as cell growth inhibition at 1 uM measured after 72 hrs by CCK-8 assay relative to control; assay type: functional
[2] = tested on: HOS-TE85; assay: Antiproliferative activity against human MNNG/HOS cells assessed as cell growth inhibition at 1 uM measured after 72 hrs by CCK-8 assay relative to control; assay type: functional
[3] = tested on: 143B; assay: Antiproliferative activity against human 143B cells assessed as cell growth inhibition at 1 uM measured after 72 hrs by CCK-8 assay relative to control; assay type: functional
[4] = tested on: MG-63; assay: Antiproliferative activity against human MG-63 cells assessed as cell growth inhibition at 1 uM measured after 72 hrs by CCK-8 assay relative to control; assay type: functional
[5] = tested on: HOS-TE85; assay: Antiproliferative activity against human MNNG/HOS cells assessed as cell growth inhibition measured after 72 hrs by CCK-8 assay; assay type: functional, cell-based; conditions: HOS-TE85, 72 h
[6] = tested on: SJSA-1; assay: Antiproliferative activity against human SJSA-1 assessed as cell growth inhibition at 1 uM measured after 72 hrs by CCK-8 assay relative to control; assay type: functional
[7] = tested on: U2OS; assay: Antiproliferative activity against human U2OS cells assessed as cell growth inhibition at 1 uM measured after 72 hrs by CCK-8 assay relative to control; assay type: functional
[8] = Microsomal stability in rat liver microsomes assessed as intrinsic clearance at 0.1 uM incubated for 10 mins in presence of NADPH by LC-MS/MS analysis; assay type: ADME, Microsome
[9] = Microsomal stability in human liver microsomes assessed as intrinsic clearance at 0.1 uM incubated for 10 mins in presence of NADPH by LC-MS/MS analysis; assay type: ADME, Microsome
[10] = Kinetic solubility of compound at pH 6.8 by turbidimetry method; assay type: physicochemical; conditions: buffer, read-out: Kinetic_solubility
[11] = Kinetic solubility of compound at pH 7.4 by turbidimetry method; assay type: physicochemical; conditions: buffer, read-out: Kinetic_solubility
[12] = Microsomal stability in mouse liver microsomes assessed as intrinsic clearance at 0.1 uM incubated for 10 mins in presence of NADPH by LC-MS/MS analysis; assay type: ADME, Microsome

SMILES: COc1ccc(N2C(=O)CSC2c2cccc(C(=O)NCCCCc3ccccc3)c2)c(OC)c1 (stereo not given)
inhibition at 1 µM [1]: 82%
inhibition at 1 µM [2]: 58%
inhibition at 1 µM [3]: 53%
inhibition at 1 µM [4]: 56%
IC50 [5]: 90.4 nM
inhibition at 1 µM [6]: 85%
inhibition at 1 µM [7]: 37%

SMILES: COc1ccccc1N1C(=O)CSC1c1cc(C(=O)NCCCCc2ccccc2)cc(C2CC2)c1 (stereo not given)
IC50 [5]: 23.5 nM

intrinsic clearance (CLint) [8]: 742 mL/min/g
intrinsic clearance (CLint) [9]: 261 mL/min/g
solubility kinetic [10]: 20 µM (≈ 9.95 µg/mL)
solubility kinetic [11]: 20 µM (≈ 9.95 µg/mL)
intrinsic clearance (CLint) [12]: 951 mL/min/g
SMILES: O=C(NCCCCc1ccccc1)c1cccc(C2SCC(=O)N2c2cccc(-c3c[nH]nn3)c2)c1 (stereo not given)
IC50 [5]: 110 nM

SMILES: O=C(NCCc1ccccc1)c1cccc(C2SCC(=O)N2c2ccc(C3CC3)cc2)c1 (stereo not given)
IC50 [5]: > 1000 nM

intrinsic clearance (CLint) [8]: 1818 mL/min/g
intrinsic clearance (CLint) [9]: 751 mL/min/g
solubility kinetic [10]: 10 µM (≈ 4.55 µg/mL)
solubility kinetic [11]: 10 µM (≈ 4.55 µg/mL)
intrinsic clearance (CLint) [12]: 1903 mL/min/g
SMILES: C#Cc1cccc(N2C(=O)CSC2c2cccc(C(=O)NCCCCc3ccccc3)c2)c1 (stereo not given)
IC50 [5]: 149 nM

SMILES: O=C(NCCCCc1ccccc1)c1cccc(C2SCC(=O)N2c2cnccn2)c1 (stereo not given)
IC50 [5]: > 1000 nM

intrinsic clearance (CLint) [8]: 3259 mL/min/g
intrinsic clearance (CLint) [9]: 2076 mL/min/g
solubility kinetic [10]: 10 µM (≈ 4.79 µg/mL)
solubility kinetic [11]: 10 µM (≈ 4.79 µg/mL)
intrinsic clearance (CLint) [12]: 1434 mL/min/g
SMILES: COc1ccccc1N1C(=O)CSC1c1cc(F)cc(C(=O)NCCCCc2ccccc2)c1 (stereo not given)
IC50 [5]: 40.9 nM

SMILES: COc1ccccc1N1C(=O)CSC1C(=O)NCCCCc1ccccc1 (stereo not given)
inhibition at 1 µM [1]: 0%
inhibition at 1 µM [2]: 0%
inhibition at 1 µM [3]: 4%
inhibition at 1 µM [4]: 60%
IC50 [5]: > 1000 nM
inhibition at 1 µM [6]: 14%
inhibition at 1 µM [7]: 6%

SMILES: CC1SC(c2cccc(C(=O)NCCCCc3ccc(Cl)cc3)c2)N(c2cccc(C3CC3)c2)C1=O (stereo not given)
IC50 [5]: 932 nM

intrinsic clearance (CLint) [8]: 3129 mL/min/g
intrinsic clearance (CLint) [9]: 2013 mL/min/g
solubility kinetic [10]: 10 µM (≈ 4.85 µg/mL)
solubility kinetic [11]: 2 µM (≈ 0.969 µg/mL)
intrinsic clearance (CLint) [12]: 3212 mL/min/g
SMILES: CC1SC(c2cccc(C(=O)NCCCCc3ccccc3)c2)N(c2ccc(C3CC3)cc2)C1=O (stereo not given)
IC50 [5]: 191 nM

SMILES: COc1c(F)cccc1N1C(=O)CSC1c1cccc(C(=O)NCCCCc2ccccc2)c1 (stereo not given)
inhibition at 1 µM [1]: 9%
inhibition at 1 µM [2]: 12%
inhibition at 1 µM [3]: 5%
inhibition at 1 µM [4]: 0%
IC50 [5]: 26.2 nM
inhibition at 1 µM [6]: 1%
inhibition at 1 µM [7]: 12%

SMILES: O=C(NCCCCc1ccccc1)c1cccc(C2OCC(=O)N2c2cccc(F)c2)c1 (stereo not given)
inhibition at 1 µM [1]: 29%
inhibition at 1 µM [2]: 87%
inhibition at 1 µM [3]: 0%
inhibition at 1 µM [4]: 66%
IC50 [5]: 320 nM
inhibition at 1 µM [6]: 32%
inhibition at 1 µM [7]: 25%

SMILES: CCOc1ccccc1N1C(=O)C(C)SC1c1cccc(C(=O)NCCCCc2ccccc2)c1 (stereo not given)
inhibition at 1 µM [1]: 82%
inhibition at 1 µM [2]: 94%
inhibition at 1 µM [3]: 53%
inhibition at 1 µM [4]: 92%
IC50 [5]: 71.6 nM
inhibition at 1 µM [6]: 85%
inhibition at 1 µM [7]: 37%

SMILES: COc1ccccc1N1C(=O)CSC1c1cccc(C(=O)NCCCCc2ccc(Cl)cc2)c1 (stereo not given)
IC50 [5]: 78.6 nM

SMILES: O=C(NCCCCn1cccn1)c1cccc(C2SCC(=O)N2c2cccc(C3CC3)c2)c1 (stereo not given)
IC50 [5]: 298 nM

SMILES: O=C(NCCCCc1ccccc1)c1cccc(C2SCC(=O)N2c2ccc(-c3ccccc3)cc2)c1 (stereo not given)
IC50 [5]: > 1000 nM

SMILES: COc1ccccc1N1C(=O)CSC1c1cccc(C(=O)NCCCCc2cccs2)c1 (stereo not given)
IC50 [5]: 46 nM

intrinsic clearance (CLint) [8]: 1482 mL/min/g
intrinsic clearance (CLint) [9]: 412 mL/min/g
solubility kinetic [10]: 20 µM (≈ 8.63 µg/mL)
solubility kinetic [11]: 20 µM (≈ 8.63 µg/mL)
intrinsic clearance (CLint) [12]: 644 mL/min/g
SMILES: O=C(NCCCCc1ccccc1)c1cccc(C2SCC(=O)N2c2ccccn2)c1 (stereo not given)
IC50 [5]: 19.7 nM

SMILES: CC(C)(C)c1conc1N1C(=O)CSC1c1cccc(C(=O)NCCCCc2ccccc2)c1 (stereo not given)
IC50 [5]: > 1000 nM

SMILES: CC1SC(c2cccc(C(=O)NCCCCc3ccc(Cl)cc3)c2)N(c2ccc(C3CC3)cc2)C1=O (stereo not given)
IC50 [5]: > 1000 nM

SMILES: O=C(NCCCc1ccccc1)c1cccc(C2SCC(=O)N2c2ccc(C3CC3)cc2)c1 (stereo not given)
IC50 [5]: > 1000 nM

SMILES: O=C(NCCCCn1cccn1)c1cccc(C2SCC(=O)N2c2cc(Cl)ccn2)c1 (stereo not given)
IC50 [5]: 36.4 nM

SMILES: COc1ccccc1N1C(=O)CSC1c1cccc(C(=O)NCCCCN2CCN(C(=O)OC(C)(C)C)CC2)c1 (stereo not given)
IC50 [5]: > 1000 nM

SMILES: CCC1(c2ccc(N3C(=O)CSC3c3cccc(C(=O)NCCCCn4cccn4)c3)cc2)CCC(=O)NC1=O (stereo not given)
IC50 [5]: > 1000 nM

intrinsic clearance (CLint) [8]: 3543 mL/min/g
intrinsic clearance (CLint) [9]: 2069 mL/min/g
solubility kinetic [10]: 10 µM (≈ 4.71 µg/mL)
solubility kinetic [11]: 10 µM (≈ 4.71 µg/mL)
intrinsic clearance (CLint) [12]: 2943 mL/min/g
SMILES: O=C(NCCCCc1ccccc1)c1cccc(C2SCC(=O)N2c2cccc(C3CC3)c2)c1 (stereo not given)
IC50 [5]: 299 nM
